Assay results: US8598204B2, “1,2-dihydro-2-oxoquinoline compounds as 5-HT4 receptor ligands” (Suven Life Sciences Limited, priority 2009, dated 2013)

How the values were obtained:
[1] = target: T1, recombinant human 5-HT4 receptor (Homo sapiens, UniProt Q13639); test: Determination of EC50 values for 5-HT4 receptor (CRE-luciferase reporter, CHO cells); type: cell-based; conditions: stable CHO cell line expressing recombinant human 5-HT4 receptor and pCRE-Luc reporter; 4 hours incubation; luciferase activity
T1 construct: expressed in transfected cells
Procedure: A stable CHO cell line expressing recombinant human 5-HT4 receptor and pCRE-Luc reporter system was used for cell-based assay. The assay offers a non-radioactive based approach to determine binding of a compound to GPCRs. In this specific assay, the level of intracellular cyclic AMP which is modulated by activation or inhibition of the receptor is measured. The recombinant cells harbor luciferase reporter gene under the control of cAMP response element.
The above cells were grown in 96 well clear bottom white plates in Hams F12 medium containing 10% fetal bovine serum (FBS). Prior to the addition of compounds or standard agonist, cells were serum starved overnight. Increasing concentrations of test compounds were added in OptiMEM medium to the cells. The incubation was continued at 37° C. in CO2 incubator for 4 hours. Medium was removed and cells were washed with phosphate buffered saline. The cells were lysed and luciferase activity was measured in a Luminometer. Luminescence units were plotted against the compound concentrations using Graphpad software. EC50 values of the compounds were defined as the concentration required in stimulating the luciferase activity by 50%.

[2] = Rodent pharmacokinetic study; type: in vivo; conditions: Wistar, rat, plasma, Wister/Male rats, 5 mg/kg; for bioavailability: Oral versus Intravenous; for AUC(0-t) / Cmax / Tmax / half-life: vehicle Water
Procedure: Male Wister rats (230-280 grams) obtained from NIN (National Institute of Nutrition, Hyderabad, India) was used as an experimental animal. Three to five animals were housed in each cage. One day prior to dosing day, male wistar rats (225-250 grams) were anesthetized with isoflurane for surgical placement of jugular vein catheter. Animals were kept fasted over night and maintained on a 12 hours light/dark cycle. Three rats were dosed NCE (5 mg/Kg) orally and intravenously on day 0 and day 2.
At each time point blood was collected by jugular vein. Plasma was stored frozen at −20° C. until analysis. The concentrations of the NCE compound in plasma were determined using LC-MS/MS method. Schedule time points: Pre dose 0.25, 0.5, 1, 1.5, 2, 3, 4, 6, 8, 10, 12 and 24 hours after dosing (n=3). The NCE compounds were quantified in plasma by validated LC-MS/MS method using solid phase extraction technique. NCE compounds were quantified in the calibration range of 2-2000 ng/mL in plasma. Study samples were analyzed using calibration samples in the batch and quality control samples spread across the batch.
Pharmacokinetic parameters Cmax, Tmax, AUCt, T1/2 and Bioavailability were calculated by non-compartmental model using software WinNonlin version 5.0.1.

[3] = Rodent brain penetration study; type: in vivo; conditions: Wistar, rat; Wister/Male rats, 10 mg/kg, Oral, vehicle Water; brain/plasma; read-out: Steady State Brain Penetration (Cb/Cp)
Procedure: Male Wister rats (230-280 grams) obtained from NIN (National Institute of Nutrition, Hyderabad, India) was used as an experimental animal. Three animals were housed in each cage. Animals were given water and food ad libitum throughout the experiment, and maintained on a 12 hours light/dark cycle.
Brain penetration was determined in discrete manner in rats. One day prior to dosing day, male wistar rats (225-250 grams) were acclimatized. After acclimatization the rats were grouped according to the weight in each group, 3 animals were kept in individual cage and allowed free access to food and water. At each time point (0.5, 1, and 2 hours) n=3 animals were used.
NCE compound was dissolved in water and administered orally at (free base) 10 mg/kg. Blood samples were removed via, cardiac puncture by using isofurane anesthesia the animals were sacrificed to collect brain tissue. Plasma was separated and Brain samples were homogenized and stored frozen at −20° C. until analysis. The concentrations of the NCE compound in plasma and Brain were determined using LC-MS/MS method.
The NCE compounds were quantified in plasma and brain homogenate by validated LC-MS/MS method using solid phase extraction technique. NCE compounds were quantified in the calibration range of 1-500 ng/mL in plasma and brain homogenate. Study samples were analyzed using calibration samples in the batch and quality control samples spread across the batch. Extents of brain-blood ratio were calculated (Cb/Cp).

[4] = system: novel object recognition (cognition) in rats; test: Object recognition task model; type: in vivo, rat; conditions: 10 mg/kg p.o.; for Exploration time mean ± S.E.M, Familiar object / Exploration time mean ± S.E.M, Novel object: choice trial T2 24 hours after T1
Procedure: The cognition-enhancing properties of compounds of this invention were estimated using a model of animal cognition: the object recognition task model.
Male Wister rats (230-280 grams) obtained from N. I. N. (National Institute of Nutrition, Hyderabad, India) was used as experimental animals. Four animals were housed in each cage. Animals were kept on 20% food deprivation before one day and given water ad libitum throughout the experiment and maintained on a 12 hours light/dark cycle. Also the rats were habituated to individual arenas for 1 hour in the absence of any objects.
One group of 12 rats received vehicle (1 mL/Kg) orally and another set of animals received compound of the formula (I) either orally or i.p., before one hour of the familiar (T1) and choice trial (T2).
The experiment was carried out in a 50×50×50 cm open field made up of acrylic. In the familiarization phase (T1), the rats were placed individually in the open field for 3 minutes, in which two identical objects (plastic bottles, 12.5 cm height×5.5 cm diameter) covered in yellow masking tape alone (a1 and a2) were positioned in two adjacent corners, 10 cm. from the walls. After 24 hours of the (T1) trial for long-term memory test, the same rats were placed in the same arena as they were placed in (T1) trial. Choice phase (T2) rats were allowed to explore the open field for 3 minutes in presence of one familiar object (a3) and one novel object (b) (Amber color glass bottle, 12 cm high and 5 cm in diameter). Familiar objects presented similar textures, colors and sizes. During the T1 and T2 trial, explorations of each object (defined as sniffing, licking, chewing or having moving vibrissae whilst directing the nose towards the object at a distance of less than 1 cm) were recorded separately by stopwatch. Sitting on an object was not regarded as exploratory activity, however, it was rarely observed.
T1 is the total time spent exploring the familiar objects (a 1+a2).
T2 is the total time spent exploring the familiar object and novel object (a3+b).
The object recognition test was performed as described by Ennaceur, A., Delacour, J., 1988, A new one-trial test for neurobiological studies of memory in rats—Behavioural data, Behav. Brain Res., 31, 47-59.

T1 sequence (Q13639 whole entry): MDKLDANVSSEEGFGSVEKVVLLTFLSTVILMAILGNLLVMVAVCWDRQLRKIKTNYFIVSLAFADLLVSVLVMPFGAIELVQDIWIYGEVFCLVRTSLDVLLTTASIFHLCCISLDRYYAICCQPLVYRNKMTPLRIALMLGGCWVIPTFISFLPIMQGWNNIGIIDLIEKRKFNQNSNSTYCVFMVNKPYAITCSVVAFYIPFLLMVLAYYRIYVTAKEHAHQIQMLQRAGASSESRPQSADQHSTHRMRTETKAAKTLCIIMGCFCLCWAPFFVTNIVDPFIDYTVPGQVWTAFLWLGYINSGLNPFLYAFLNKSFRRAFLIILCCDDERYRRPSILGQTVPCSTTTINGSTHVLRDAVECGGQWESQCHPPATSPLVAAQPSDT

Row | SMILES | EC50 [1] [µM] | bioavailability [2] [%] | AUC(0-t) ([2]; Intravenous) [µg·h/mL] | Cmax ([2]; Intravenous) [µg/mL] | Tmax ([2]; Intravenous) [h] | half-life ([2]; Intravenous) [h] | AUC(0-t) ([2]; Oral) [µg·h/mL] | Cmax ([2]; Oral) [µg/mL] | Tmax ([2]; Oral) [h] | half-life ([2]; Oral) [h] | Kp [3] | Inference [4] | Exploration time mean ± S.E.M, Familiar object [4] [s] | Exploration time mean ± S.E.M, Novel object [4] [s]
1 | CC(C)n1c(=O)c(C(=O)NCCCN2C3CC4CC2CC(O)(C4)C3)c(O)c2ccccc21 [Example 4, N-[(5-Hydroxy-2-azatricyclo[3.3.1.1^3,7]dec-2-yl)propyl]-4-hydroxy-1-isopropyl-2-oxo-1,2-dihydroquinoline-3-carboxamide] | 0.421 | 34 ± 6 | 1.66 ± 0.498 | 0.803 ± 0.062 | 0.08 | 2.64 ± 0.89 | 0.547 ± 0.126 | 0.216 ± 0.078 | 0.33 | 1.8 ± 0.36 | 0.66 ± 0.1 | Active | 6.72 ± 1.92 | 11.86 ± 1.65
2 | CC(C)n1c(=O)c(C(=O)NCCCN2C3CC4CC(C3)CC2C4)c(O)c2ccccc21.Cl [Example 1, N-[(2-Azatricyclo[3.3.1.1^3,7]dec-2-yl)propyl]-4-hydroxy-1-isopropyl-2-oxo-1,2-dihydroquinoline-3-carboxamide hydrochloride] | 0.23 | 26 ± 11 | 3.02 ± 0.98 | 1.17 ± 0.241 | 0.08 | 1.88 ± 1.15 | 0.801 ± 0.105 | 0.211 ± 0.032 | 0.83 ± 0.29 | 2.37 ± 0.6 | 0.2 ± 0.04 | Active | 7.87 ± 0.83 | 12.56 ± 1.31
